Values quoted from earlier work in patent US20030203043A1 (priority 2002, published 2003).
Where two headings read alike, the source gives them in different places.

Legend:
[1] = supplementation
[2] = female rats
aromatase = target: T1, aromatase (Homo sapiens, UniProt P11511); conditions: relative to chrysin, AG, ANG
T1 sequence (P11511 1-503): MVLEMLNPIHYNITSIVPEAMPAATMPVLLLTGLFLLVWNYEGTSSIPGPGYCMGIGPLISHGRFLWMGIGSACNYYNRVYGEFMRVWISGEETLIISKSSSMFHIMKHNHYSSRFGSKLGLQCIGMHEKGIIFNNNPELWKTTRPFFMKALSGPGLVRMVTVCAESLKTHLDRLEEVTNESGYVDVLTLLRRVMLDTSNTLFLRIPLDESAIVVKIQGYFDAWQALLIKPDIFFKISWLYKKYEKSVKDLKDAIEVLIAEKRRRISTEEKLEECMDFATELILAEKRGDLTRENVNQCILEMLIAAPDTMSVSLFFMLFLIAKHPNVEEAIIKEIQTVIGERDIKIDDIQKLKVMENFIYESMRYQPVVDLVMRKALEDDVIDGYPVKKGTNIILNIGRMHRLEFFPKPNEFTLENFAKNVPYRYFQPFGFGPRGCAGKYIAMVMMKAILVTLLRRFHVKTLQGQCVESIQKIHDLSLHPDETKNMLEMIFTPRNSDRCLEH

[3] = not given; remark: listed apart in the source
[4] = hypogonadal men; for waking erection: Asian group; for sexual interest and activity, spontaneous erection: Caucasian group
[5] = levator ani muscles
[6] = prostate and seminal vesicle weights
[7] = 300 mg/wk, six weeks; TE shoulders; ND shoulders and chest
[8] = pharmacological doses
[9] = compared with placebo
[10] = in vivo
[11] = in vivo; remark: listed apart in the source

For `C[C@]12CC[C@H]3[C@@H](CCC4=C[C@@H](O)CC[C@@]43C)[C@@H]1CC[C@@H]2O` [4-androstenediol], which “urine testosterone concentration relative to 4-androstenedione” value (supplementation) is on record?
The value was 10 fold.

Which serum testosterone [1] does the source give for `C[C@]12CCC(=O)C=C1CC[C@@H]1[C@@H]2CC[C@]2(C)C(=O)CC[C@@H]12` [4-androstenedione] here?
Its serum testosterone is “elevations in serum testosterone”.

Which “lipid deposition or heat production” value [2] does the source give for `C[C@]12CC[C@H]3[C@@H](CC=C4C[C@@H](O)CC[C@@]43C)[C@@H]1CC[C@@H]2O` [5-androstenediol] here?
Its value is “did not have a significant effect”.

And the “proportion of protein in the body composition” value [2]?
The value was “increased the proportion of protein”.

With `C[C@]12CC[C@H]3[C@@H](CCC4=CC(=O)CC[C@@H]43)[C@@H]1CCC2=O` [19-nor-androstenedione] as the compound, how does the excretion products (in vivo) read?
The excretion products was “excreted mainly as nor-androsterone and nor-etiocholanolone”.

For `COc1ccc(-c2coc3cc(O)cc(O)c3c2=O)cc1` [Biochanin A, 5,7-dihydroxy-4′-methoxyisoflavone], which aromatase inhibition (aromatase) is on record?
Its aromatase inhibition is “inhibited aromatase, but to a lesser degree”.

With `C[C@]12CC[C@H](O)CC1=CC[C@@H]1[C@@H]2CC[C@]2(C)C(=O)CC[C@@H]12` [DHEA, dehydro-epiandrosterone] as the compound, how does the plasma testosterone ([3]; 50 mg dose) read?
Its plasma testosterone is “levels similar to those observed in young women”.

What about the “delta 5-androstenediol plasma level” value ([3]; 50 mg or 200 mg DHEA) of the same compound?
Its value is “small increase”.

What about the “increase of plasma delta 4-androstenedione” value ([3]; 50 mg or 200 mg DHEA) of the same compound?
Its value is “significant and dose dependent”.

What about the “plasma estrogens, particularly estradiol” value ([3]; 50 mg or 200 mg DHEA) of the same compound?
Its value is “significant and dose dependent increase”.

And the plasma testosterone ([3]; 200 mg dose)?
Its plasma testosterone is “slightly below the levels observed in normal men”.

And the “increase of plasma dihydrotestosterone levels” value ([3]; both doses)?
The value was “small”.

For `C[C@@H]1CC2=CC(=O)CC[C@@H]2[C@H]2CC[C@]3(C)[C@@H](O)CC[C@H]3[C@@H]21` [MENT, 7α-methyl-19-nor-testosterone], which waking erection [4] is on record?
Its waking erection is “increased waking erection”.

What about the “sexual interest and activity, spontaneous erection” value [4] of the same compound?
The value was “significant increases”.

And the “anabolic potency relative to testosterone” value [5]?
Its value is “ten-times”.

What about the “androgenic potency relative to testosterone” value [6] of the same compound?
The value was “four- to five-times”.

For `CCCCCCC(=O)O[C@H]1CC[C@H]2[C@@H]3CCC4=CC(=O)CC[C@]4(C)[C@H]3CC[C@]12C` [TE, testosterone enanthate], which waking erection [4] is on record?
The waking erection was “increased waking erection”.

What about the “sexual interest and activity, spontaneous erection” value [4] of the same compound?
The value was “significant increases”.

What about the body circumferences [7] of the same compound?
The body circumferences was “significant increases”.

Which results are given for `C[C@]12CC[C@H]3[C@@H](CCC4=CC(=O)CC[C@@]43C)[C@@H]1CC[C@@H]2O` [Testosterone]?
lipid deposition or heat production [2]: did not have a significant effect; proportion of protein in the body composition [2]: increased the proportion of protein

Which “total weight, lean body mass, body cell mass, muscle size, and strength” value [8] does the source give for `CCCCCCCCCC(=O)O[C@H]1CC[C@H]2[C@@H]3CCC4=CC(=O)CC[C@@H]4[C@H]3CC[C@]12C` [nandrolone decanoate] here?
The value was “significant gains”.

What about the body circumferences [7] of the same compound?
Its body circumferences is “significant increases”.

What does the source list for `C[C@]12CC[C@H]3[C@@H](CCC4=CC(=O)CC[C@@H]43)[C@@H]1CC[C@@H]2O` [nandrolone, 19-nor-testosterone]?
lean body mass [9]: increased significantly; effect on sperm [10]: azoospermia; energy expenditure [2]: increased energy expenditure; decrease in HDL-cholesterol [11]: 25-27%
